Consider seven compounds from publication PMC2872594 (Clinical Medicine. Oncology, 2009).

The subject of one series is A2780/AD cells. In words: In vitro cytotoxicity (WSK-8) assay. The format is cell-based. On the procedure: In vitro cytotoxicity (WSK-8) assays
The proliferation of exponential phase cultures of A2780/AD cells was assessed by colorimetric assay (WSK-8). In brief, cells were plated onto a 96 well microtiter plates at 5,000 cells per well. After a 24 hour incubation period to facilitate adherence, the RPMI media was removed and replaced with 100 or 200 μL of fresh media containing the different concentrations of drug. The cells were then incubated for 1 or 3 days at 37 °C at 95% humidity and 5% CO2. The media was then removed, and replaced with 100 μL fresh media containing 10% WSK-8 dye. The plates were incubated for 1.5 hours and subsequently measured at 450 nm with a 96-well plate reader. A non-linear curve fitted to the concentrations tested was used and the data plotted using Origin software. Each concentration was run in triplicate, and drug was tested 3 times.

The subject of series [1] is reduced folate carrier (RFC). The settings on record: cited from earlier work.
Another series deals with folate receptor (FR). To be noted: cited from earlier work.
Series [2] has as its target T1, dihydrofolate reductase (DHFR) (Homo sapiens, UniProt P00374).
T1 construct: purchased Sigma Aldrich
T1 sequence (P00374 1-187): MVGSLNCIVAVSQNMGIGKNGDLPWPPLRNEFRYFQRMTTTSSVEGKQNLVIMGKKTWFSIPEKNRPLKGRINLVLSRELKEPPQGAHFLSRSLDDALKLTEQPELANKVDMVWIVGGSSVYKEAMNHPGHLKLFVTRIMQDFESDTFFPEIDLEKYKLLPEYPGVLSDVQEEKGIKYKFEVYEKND
Description: In vitro, cell free DHFR inhibition assay. The series is classed as biochemical. To be noted: cell free colorimetric assay, absorbance over 2.5 minutes. On the procedure:
In vitro, cell free DHFR inhibition assay
The DHFR calorimetric assay was purchased from Sigma Aldrich, and was performed according to instructions. Briefly, DHFR was mixed with inhibitor and NADPH.
The percent of control was plotted, and a fit using a power regression line used.

Series [3] is described as follows: Stability study in PBS buffer (HPLC). The settings on record: phosphate buffered saline pH 7.4, 37 °C. The format is physicochemical. On the procedure:
To explain the in vitro results, the stability of the compounds was examined. (3) was dissolved in phosphate buffered saline at a pH of 7.4, and incubated at 37 °C. Time points were taken at 24 and 72 hours. […] While not completely stable over the time tested, the stability of the carbamate linkage could be preventing the nucleoside from being released in the cell over the earlier time points. This is consistent with previous nucleoside conjugate work reported and the observation that (2) and (3) have a greater toxicity at 72 hours than the carrier system (1). The delay in the release could explain the discrepancies between the conjugated and the unconjugated systems.
(3) was dissolved in PBS buffer 1 at pH 7.4 in a concentration of [l mM]. The solution was incubated at 37 °C for 24 and 72 hours. Samples from the solution were examined using the HPLC Eclipse XDB C18 analytical column (4.6 × […]; Agilent Technologies). The method conditions were the same as the purification with a flow rate of 0.7 ml/min.

[4] abbreviates: A2780AD, 24 h, read-out: In vitro IC50, 24 hours.
Setting [5] is: A2780AD, 72 h, read-out: In vitro IC50, 72 hours.
Setting [6] is: A2780/AD ovarian cancer cell line, 24 hours incubation, folate deficient media, read-out: In vitro IC50, 24 hours.
The mark [7] stands for this setting: A2780/AD ovarian cancer cell line, 72 hours incubation, folate deficient media, read-out: In vitro IC50, 72 hours.

Where two headings read alike, the source gives them in different places. Some results are limits rather than exact numbers.

On to `Cc1cn([C@H]2C[C@H](N=[N+]=[N-])[C@@H](CO)O2)c(=O)[nH]c1=O` [AZT, 3’-Azido-3’-deoxythymidine, reference compound], for which the IC50 is above 10000 µM with A2780/AD cells (setting [4]) and 8000 ± 1000 µM with A2780/AD cells (setting [5]).
On to `Nc1nc(=O)c2nc(CNc3ccc(C(=O)N[C@@H](CCC(=O)O)C(=O)O)cc3)cnc2[nH]1` [Folate, Folic acid], for which the Km in series [1] was 200 to 400 µM.
`CN(Cc1cnc2nc(N)nc(N)c2n1)c1ccc(C(=O)N[C@@H](CCC(=O)O)C(=O)O)cc1` [MTX, Methotrexate]: the IC50 was above 10000 µM in the series with A2780/AD cells (setting [4]) and 7000 ± 900 µM in the series with A2780/AD cells (setting [5]). In addition, in series [1], the Km is 5 to 10 µM. Moreover, the “Greater affinity for the RFC over folate” value in series [1] (relative to folate) is reported as 100 times. Besides, in the series with folate receptor (FR) (relative to folate), the “Lower affinity of FR for MTX over folate” value is “approximately 100 fold”. Besides, the “Less affinity for the FR than oxidized folate” value in the series on folate receptor (FR) (relative to oxidized folate) was 100 fold.
As to γ-MTX-PEG-AZT [Compound 2], the IC50 in the series with A2780/AD cells (setting [6]) was above 1000 µM; in the series on A2780/AD cells (setting [7]), 430 ± 30 µM; in series [2], 152 µM.
Take γ-MTX-PEG-IUdR [Compound 3]: the IC50 was above 1000 µM in the series on A2780/AD cells (setting [6]), 211 ± 100 µM in the series on A2780/AD cells (setting [7]) and 394 µM in series [2]. In addition, in series [3] (24 hours), the “Stability, free nucleoside after 24 hours” value is “no sign of free nucleoside”. The “Stability, free nucleoside after 72 hours” value in series [3] (72 hours) is “partial decomposition”.
Regarding γ-MTX-PEG-NH2 [Compound 1], the IC50 was above 1000 µM in the series with A2780/AD cells (setting [6]), 700 ± 100 µM in the series with A2780/AD cells (setting [7]) and 200 µM in series [2].
Turning to γ-MTX-PEG-ddC [Compound 4], the IC50 was above 1000 µM in the series with A2780/AD cells (setting [6]), 960 ± 80 µM in the series on A2780/AD cells (setting [7]) and 178 µM in series [2].

The IC50 is the concentration needed to halve the response being measured. As usually defined, the Km is the substrate concentration at which the rate is half of its maximum.
